# According to patent US20230285357A1, “COMPOSITIONS AND METHODS FOR […] CELLS” (The Regents of the University of California, priority 2020, published 2023):
# Columns and labels:
# [1] = system: mouse osteoblast line MC3T3; test: Flow cytometric analysis of SB216763-treated osteoblasts with anti-CD31 and anti-VE-cadherin antibodies; type: cell-based
# Description: A high throughput screen was generated by modifying the mouse osteoblast line MC3T3. Fetal liver kinase 1 (Flk1) promoter-driven enhanced green fluorescent protein (eGFP) was introduced into these osteoblasts. […] Several libraries of small molecules, including a FDA-approved drug library, a UCLA in-house collection, and a custom set of compounds were screened. These libraries contained more than 22,000 small molecules ranging from natural products to synthesized compounds. […] Using arrange of dose (1-10 μM), it is shown that the reduction of the osteogenic markers Cbfa1, osterix and osteocalcin and the induction of the endothelial markers CD34, VE-cadherin, CD31 and eNOS occurred in a dose-dependent manner (FIG. 1, Part E). Osteoblasts were then treated with 10 μM SB216763 and examined the time-course expression of these osteogenic and endothelial markers. […] It was further determined the specificity of endothelial differentiation by closely examining other vascular lineage markers including smooth muscle cells (SMCs), pericytes, and fibroblasts by using real-time PCR. […] Because GSK3 is important in glucose metabolism, the expression of genes related to glucose metabolism was determined in the SB216763-treated osteoblasts, such as casein kinase 2, glucose transporter 4, and insulin receptor substrates 1 and 2. […]
# vascular repair = test: Hindlimb ischemia model in nude mice after cell transplantation; type: in vivo, mouse
# Experimental: Then, same cells in a model of hindlimb ischemia in nude mice to evaluate the capacity of eGFP positive cells in vascular repair were tested. After ligation of the proximal and distal femoral artery, eGFP positive cells were transplanted (FIG. 2, Part F). Human aortic endothelial cells (HAECs) and osteoblasts were used as controls.
# Tube formation assays in vitro was then tested. […] Cells into hindlimb ischemia mouse model were transplanted.
# Laser Doppler perfusion imaging was performed using real-time microcirculation imaging system (Perimed). The imaging was conducted under normal ambient room lighting. 20×27 mm high resolution model was used with 1388×1038 pixels measurement camera and 752×580 pixels documentation camera as one image per second. The image resolution was set up as 20 μm/pixel and 21 images per frame until stopped. Windows based PIMSoft software (Perimed) was used to process the data.
# The murine model of hindlimb ischemia was performed as previously described. A 10 mm long incision of the skin was made towards the medial thigh. The femoral artery was exposed and separated from femoral vein and nerve. Silk sutures were used to tie the proximal and the distal end of femoral artery with double knots. The cells (5×10^5) were transplanted into the surgical area and the incision was closed. Laser Doppler perfusion imaging was used to monitor the blood flow at different time points. Histology and immunostaining were used to examine the vascularization 2 weeks after transplantation.
# [2] = system: promoter region of Smad1 gene; test: ChIP assay of β-catenin DNA-binding and histone modification in promoter of Smad1 gene; type: cell-based, mouse
# Description: The expression of transcription factors that are known to be involved in bone formation or vascular development were screened. […] To determine if excess β-catenin affected SMAD1 expression, β-catenin in SB216763-treated osteoblasts was depleted by using siRNA. […] DNA-binding sites of β-catenin by locating the binding motifs in Smad1 gene was explored, and identified four individual sites located at −196 bp, −1454 bp, −2805 bp and −4729 bp upstream of exon1 of Smad1 gene (FIG. 3, Part D). […] Then, transcriptional status of Smad1 was determined by examining the histone modification, including trimethylated histone H3 lysine 4 (H3K4me3) associated with active transcription and H3K27me3 a closed chromatin mark.
# βChIP assays were performed as previously described. Specific antibodies for β-catenin were used (R&D System, MAB2006), H3k4me3 (Abcam, ab8580) and H3k27me3 (Abcam, ab6002). The primers for the real-time PCR: 5′GAAAATAACACAGGCTTTG3′ (SEQ ID NO: 13) and 5′ GCTCCCCGAGCCTGGATT 3′ (SEQ ID NO: 14); 5′ GGACAGAGGCTCTCATTCC 3′ (SEQ ID NO: 15) and 5′[…]3′ (SEQ ID NO: 16) and 5′[…]3′ (SEQ ID NO: 17) 5′[…]3′ (SEQ ID NO: 18); 5′[…]3′ (SEQ ID NO: 19) and 5′[…]3′ (SEQ ID NO: 20).
# [3] = system: aortic cells of Osx-GfptgMgp−/− mice; test: Osteoblastic-lineage tracing in Osx-GfptgMgp−/− mice, FACS of aortic cells; type: in vivo, mouse; details: Osx-GfptgMgp−/− mice treated for 2 weeks
# Experimental: Then, mice were treated with or without SB216763 for 2 weeks. […] Then, the alteration of GFP and CD31 double positive cells (GFP+CD31+) were characterized after SB216763 treatment. […] Same numbers of cells of each group were used to perform a transplantation experiment to examine the capacity of bone formation by using bone formation assay in vivo.
# FACS analysis was performed as previously described. The cells were stained with fluorescein isothiocyanate (FITC)-, phycoerythrin (PE)-, or Alexa Fluor 488 (AF-488)-conjugated antibodies against CD31 and VE-cadherin (all from BD biosciences, 550274 and 562243), osterix (Santa Cruz Biotechnology, sc-22536). Nonspecific fluorochrome- and isotype-matched IgGs (BD Pharmingen) served as controls.
# [4] = system: bone tissue of wild type mice; test: Effect of long treatment on bone formation in wild type mice; type: in vivo, mouse; details: wild type mice at 8 weeks of age, 5 ug/g daily for 8 weeks
# Experimental: To determine if long-treatment of SB216763 has any effects on bone formation, wild type mice were treated at 8 weeks of age with SB216763 (5 ug/g daily) for 8 weeks. After treatment, the bone tissue was examined by micro-CT imaging and immunostaining.
# MicroCT imaging was performed at the Crump Imaging Center at UCLA. All the samples were scanned on a high-resolution, volumetric microCT scanner (CT125). The image data were acquired with the following parameters: 10 μm isotropic voxel resolution; 200 ms exposure time; 2,000 views and 5 frames per view. The microCT-generated DICOM files were used to analyze the samples and to create volume renderings of the regions of interest. The raw data files were viewed using the MicroView 3-D volume viewer and analysis tool (GE Healthcare) and AltaViewer™ Software. Additionally, images of the samples were generated using SCIRun (Scientific Computing and Imaging Institute).
# GSK3α and GSK3β = details: cited from earlier work
smiles,measurement,setting,value
Cn1cc(C2=C(c3ccc(Cl)cc3Cl)C(=O)NC2=O)c2ccccc21 [SB216763],treated osteoblasts expressing the endothelial markers CD31 and VE-cadherin,[1],more than 85%
same,"blood flow, Laser Doppler perfusion imaging",vascular repair; SB216763-treated cells with restoring SMAD1 vs controls,No difference was observed
same,"blood flow, Laser Doppler perfusion imaging",vascular repair; SB216763-treated osteoblasts with depletion of β-catenin vs cells without depletion,less blood flow
same,"vascular density, histology and immunostaining",vascular repair; transplanted eGFP positive cells,increase in vascular density
same,"limb blood flow, Laser Doppler perfusion imaging",vascular repair; transplanted eGFP positive cells compared to osteoblasts,significantly higher limb blood flow
same,histone modification H3K4me3 and H3K27me3 around β-catenin binding sites in Smad1 promoter,[2]; treated osteoblasts,lower abundance of H3K4me3 with higher abundance H3K27me3
same,β-catenin abundance around binding sites upstream of exon1 of Smad1 gene,[2]; treated osteoblasts vs non-treated controls,more abundance of β-catenin
same,"aortic cells co-expressing GFP and CD31, FACS",[3],decreased number of cells that co-expressed GFP and CD31
same,"aortic cells expressing only CD31, FACS",[3],increased number of cells that only expressed CD31
same,hemorrhage in the bone tissue,[4],had not detected any hemorrhage
same,"microstructure of bone tissues and vasculature, immunostaining of CD31 and osterix",[4],no changes in the microstructure of bone tissues and vasculature
same,"relative bone volumes and connectivity densities, micro-CT",[4]; treated vs non-treated,no differences
same,inhibition of GSK3 isoforms GSK3α and GSK3β,GSK3α and GSK3β,specifically inhibits the activity of these GSK3 isoforms in an ATP competitive manner
